Data: US12091411B2, “IRAK degraders and uses thereof” (Kymera Therapeutics, Inc., priority 2022, dated 2024)
Read-outs that look alike come from different tables or passages of the source.

Molecular target: T1, IRAK4 (Homo sapiens, UniProt Q9NWZ3)
T1 construct: Degradation of IRAK4 in OCI-LY10 was quantitatively measured using Meso Scale Discovery technology; endogenous in cells; host or cells: OCI-LY10
T1 sequence (Q9NWZ3 1-460): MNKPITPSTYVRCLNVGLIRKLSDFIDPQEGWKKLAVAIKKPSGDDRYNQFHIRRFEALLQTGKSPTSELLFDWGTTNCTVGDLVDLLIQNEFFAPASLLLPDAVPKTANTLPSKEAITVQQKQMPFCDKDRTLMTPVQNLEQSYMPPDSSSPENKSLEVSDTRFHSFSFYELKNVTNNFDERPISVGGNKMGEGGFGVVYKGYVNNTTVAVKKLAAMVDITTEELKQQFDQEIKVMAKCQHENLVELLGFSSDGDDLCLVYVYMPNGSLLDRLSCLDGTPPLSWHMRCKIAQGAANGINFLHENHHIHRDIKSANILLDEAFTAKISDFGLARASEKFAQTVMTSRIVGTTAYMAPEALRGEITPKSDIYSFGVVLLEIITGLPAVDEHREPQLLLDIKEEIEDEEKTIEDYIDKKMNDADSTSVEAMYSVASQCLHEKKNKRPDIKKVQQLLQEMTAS
Assay: IRAK4 MSD Degradation in OCI-LY10
Type: cell-based
Conditions: OCI-LY10 cells, MSD
How it was run: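 OCI-LY10 cells exposed to 8-point 1:3 compound series (top 1 to 10 μM) for 4 to 24 h at 37 °C, 5% CO2. Lysate IRAK4 quantified by MSD sandwich immunoassay. DC50 from three-parameter logistic fit, binned A (<0.01 μM) to D (>0.2 μM or not tested).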

[1] = 4 hrs incubation, read-out: IRAK4 degradation in OCI-LY10 at 4 hrs: DC50
[2] = 24 hrs incubation, read-out: IRAK4 degradation in OCI-LY10 at 24 hrs: DC50

SMILES | DC50 [1] [nM] | DC50 [2] [nM]
Cn1c(=O)n(C2CCC(=O)NC2=O)c2cccc(C3CC(CN4CCN(C[C@H]5CC[C@H](n6cc(NC(=O)c7cnn8ccc(N9C[C@H]%10C[C@@H]9CO%10)nc78)c(C(F)F)n6)CC5)CC4)C3)c21 (stereo partly shown) [I-66] | < 10 | > 200
Cn1c(=O)n(C2CCC(=O)NC2=O)c2cccc(C3CC(OC4CCN(C[C@H]5CC[C@H](n6cc(NC(=O)c7cnn8ccc(N9C[C@H]%10C[C@@H]9CO%10)nc78)c(C(F)F)n6)CC5)CC4)C3)c21 (stereo partly shown) [I-68] | < 10 | > 200
Cn1c(=O)n(C2CCC(=O)NC2=O)c2cccc(N3CCC(N4CCN(C[C@H]5CC[C@H](n6cc(NC(=O)c7cnn8ccc(N9C[C@H]%10C[C@@H]9CO%10)nc78)c(C(F)F)n6)CC5)CC4)CC3)c21 (stereo partly shown) [I-69] | < 10 | > 200
CCn1c(=O)n(C2CCC(=O)NC2=O)c2cccc(C#CCOC3CCN(C[C@H]4CC[C@H](n5cc(NC(=O)c6cnn7ccc(N8C[C@H]9C[C@@H]8CO9)nc67)c(C(F)F)n5)CC4)CC3)c21 (stereo partly shown) [I-70] | < 10 | > 200
O=C1CCN(c2cncc3c(C4CCN(C5CCN(C[C@H]6CC[C@H](n7cc(NC(=O)c8cnn9ccc(N%10C[C@H]%11C[C@@H]%10CO%11)nc89)c(C(F)F)n7)CC6)CC5)CC4)cccc23)C(=O)N1 [I-74] | < 10 | > 200
O=C1CCN(c2cncc3cc(C4CCN(C5CCN(C[C@H]6CC[C@H](n7cc(NC(=O)c8cnn9ccc(N%10C[C@H]%11C[C@@H]%10CO%11)nc89)c(C(F)F)n7)CC6)CC5)CC4)ccc23)C(=O)N1 [I-75] | < 10 | > 200
O=C1CCN(c2cncc3c(N4CCN(C5CCN(C[C@H]6CC[C@H](n7cc(NC(=O)c8cnn9ccc(N%10C[C@H]%11C[C@@H]%10CO%11)nc89)c(C(F)F)n7)CC6)CC5)CC4)cccc23)C(=O)N1 [I-76] | < 10 | > 200
O=C1CCN(c2cncc3cc(N4CCN(C5CCN(C[C@H]6CC[C@H](n7cc(NC(=O)c8cnn9ccc(N%10C[C@H]%11C[C@@H]%10CO%11)nc89)c(C(F)F)n7)CC6)CC5)CC4)ccc23)C(=O)N1 [I-77] | < 10 | > 200
Cn1c(=O)n(C2CCC(=O)NC2=O)c2cccc([C@H]3C[C@@H](CN4CCN(C[C@H]5CC[C@H](n6cc(NC(=O)c7cnn8ccc(N9C[C@H]%10CC9CO%10)nc78)c(C(F)F)n6)CC5)CC4)C3)c21 (stereo partly shown) [I-78] | < 10 | > 200
Cn1c(=O)n(C2CCC(=O)NC2=O)c2cccc([C@H]3C[C@H](CN4CCN(C[C@H]5CC[C@H](n6cc(NC(=O)c7cnn8ccc(N9C[C@H]%10C[C@@H]9CO%10)nc78)c(C(F)F)n6)CC5)CC4)C3)c21 (stereo partly shown) [I-79] | < 10 | > 200
C[C@H]1CN(C[C@H]2CC[C@H](n3cc(NC(=O)c4cnn5ccc(N6C[C@@H]7C[C@H]6CO7)nc45)c(C(F)F)n3)CC2)CC[C@@H]1OCC#Cc1cccc2c1n(C)c(=O)n2[C@@H]1CCC(=O)NC1=O [I-80] | 10 to 100 | > 200
Cn1c(=O)n(C2CCC(=O)NC2=O)c2cccc([C@H]3C[C@@H](OC4CCN(C[C@H]5CC[C@H](n6cc(NC(=O)c7cnn8ccc(N9C[C@H]%10C[C@@H]9CO%10)nc78)c(C(F)F)n6)CC5)CC4)C3)c21 (stereo partly shown) [I-81] | < 10 | > 200
Cn1c(=O)n(C2CCC(=O)NC2=O)c2cccc([C@H]3C[C@H](OC4CCN(C[C@H]5CC[C@H](n6cc(NC(=O)c7cnn8ccc(N9C[C@H]%10C[C@@H]9CO%10)nc78)c(C(F)F)n6)CC5)CC4)C3)c21 (stereo partly shown) [I-82] | > 200 | > 200
COc1cc2nn([C@H]3CC[C@H](CN4CCC5(CC4)CCN(c4cccc6c4n(C)c(=O)n6C4CCC(=O)NC4=O)CC5)CC3)cc2cc1NC(=O)c1cncc(F)c1 (stereo partly shown) [I-83] | > 200 | > 200
COc1cc2nn([C@H]3CC[C@H](CN4CCC5(CC4)CCN(c4c(C)ccc6c4n(C)c(=O)n6C4CCC(=O)NC4=O)CC5)CC3)cc2cc1NC(=O)c1cncc(C#N)c1 (stereo partly shown) [I-84] | > 200 | > 200
COc1cc2nn([C@H]3CC[C@H](CN4CCC5(CC4)CCN(c4cccc(N6CCC(=O)NC6=O)c4)CC5)CC3)cc2cc1NC(=O)c1cncc(C#N)c1 [I-85] | > 200 | > 200
COc1cncc(C(=O)Nc2cc3cn([C@H]4CC[C@H](CN5CCC6(CC5)CCN(c5cccc7c5n(C)c(=O)n7C5CCC(=O)NC5=O)CC6)CC4)nc3cc2OC)c1 (stereo partly shown) [I-86] | > 200 | > 200
COc1cc2nn([C@H]3CC[C@H](CN4CCC5(CC4)CCN(c4c(OC)ccc6c4n(C)c(=O)n6C4CCC(=O)NC4=O)CC5)CC3)cc2cc1NC(=O)c1cncc(C#N)c1 (stereo partly shown) [I-87] | < 10 | < 10
COc1cc2nn([C@H]3CC[C@H](CN4CCC5(CC4)CCN(c4ccc(C6CCC(=O)NC6=O)cc4)CC5)CC3)cc2cc1NC(=O)c1cncc(C#N)c1 (stereo partly shown) [I-88] | 10 to 100 | > 200

SMILES | DC50 [1] [nM] | DC50 [2] [nM]
COc1cc2nn([C@H]3CC[C@H](CN4CCC5(CC4)CCN(c4cccc6c4n(C)c(=O)n6C4CCC(=O)NC4=O)CC5)CC3)cc2cc1NC(=O)c1cncc(C)c1 (stereo partly shown) [I-89] | > 200 | > 200
COc1cc2nn([C@H]3CC[C@H](CN4CCC5(CC4)CCN(c4cccc6c(N7CCC(=O)NC7=O)cncc46)CC5)CC3)cc2cc1NC(=O)c1cncc(C#N)c1 [I-90] | > 200 | > 200
COc1cc2nn([C@H]3CC[C@H](CN4CCC5(CC4)CCN(c4cccc(C6CCC(=O)NC6=O)c4)CC5)CC3)cc2cc1NC(=O)c1cncc(C#N)c1 (stereo partly shown) [I-91] | > 200 | 100 to 200
COc1cc2nn([C@H]3CC[C@H](CN4CCC5(CC4)CCN(c4cccc6c4n(C)c(=O)n6C4CCC(=O)NC4=O)CC5)CC3)cc2cc1NC(=O)c1cncc(C(F)(F)F)c1 (stereo partly shown) [I-92] | > 200 | > 200
COc1cc2nn([C@H]3CC[C@H](CN4CCC5(CC4)CCN(c4cccc6c(N7CCC(=O)NC7=O)cccc46)CC5)CC3)cc2cc1NC(=O)c1cncc(C#N)c1 [I-93] | 10 to 100 | 10 to 100
COc1cc2nc([C@H]3CC[C@H](CN4CCC5(CC4)CCN(c4cccc6c4n(C)c(=O)n6C4CCC(=O)NC4=O)CC5)CC3)sc2cc1NC(=O)c1cncc(C#N)c1 (stereo partly shown) [I-94] | > 200 | > 200
COc1cc2nn([C@H]3CC[C@H](CN4CCC5(CC4)CCN(c4c(F)ccc6c4n(C)c(=O)n6C4CCC(=O)NC4=O)CC5)CC3)cc2cc1NC(=O)c1cncc(C#N)c1 (stereo partly shown) [I-95] | > 200 | > 200
COc1cc2nn([C@H]3CC[C@H](CN4CCC5(CC4)CCN(c4ccc(N6CCC(=O)NC6=O)cc4)CC5)CC3)cc2cc1NC(=O)c1cncc(C#N)c1 [I-96] | > 200 | > 200
Cn1c(=O)n(C2CCC(=O)NC2=O)c2cccc(N3CCC4(CCN(C[C@H]5CC[C@H](c6nc7cc(C(C)(C)O)c(NC(=O)c8cncc(C#N)c8)cc7s6)CC5)CC4)CC3)c21 (stereo partly shown) [I-97] | < 10 | > 200
Cn1c(=O)n(C2CCC(=O)NC2=O)c2cccc(C#CCN3CCN(C[C@H]4CC[C@H](n5cc(NC(=O)c6cnn7ccc(N8CCOCC8)nc67)c(C(F)F)n5)CC4)CC3)c21 (stereo partly shown) [I-98] | < 10 | > 200
COc1ccn2ncc(C(=O)Nc3cn([C@H]4CC[C@H](CN5CCN(CC#Cc6cccc7c6n(C)c(=O)n7C6CCC(=O)NC6=O)CC5)CC4)nc3C(F)F)c2n1 (stereo partly shown) [I-99] | 10 to 100 | > 200
Cn1c(=O)n(C2CCC(=O)NC2=O)c2cccc(C#CCN3CCN(C[C@H]4CC[C@H](n5cc(NC(=O)c6cnn7ccc(N8CCCCC8)nc67)c(C(F)F)n5)CC4)CC3)c21 (stereo partly shown) [I-100] | 10 to 100 | > 200
CN(C)c1ccn2ncc(C(=O)Nc3cn([C@H]4CC[C@H](CN5CCN(CC#Cc6cccc7c6n(C)c(=O)n7C6CCC(=O)NC6=O)CC5)CC4)nc3C(F)F)c2n1 (stereo partly shown) [I-101] | < 10 | > 200
Cc1ccn2ncc(C(=O)Nc3cn([C@H]4CC[C@H](CN5CCN(CC#Cc6cccc7c6n(C)c(=O)n7C6CCC(=O)NC6=O)CC5)CC4)nc3C(F)F)c2n1 (stereo partly shown) [I-102] | 10 to 100 | > 200
Cn1c(=O)n(C2CCC(=O)NC2=O)c2cccc(C#CCN3CCN(C[C@H]4CC[C@H](n5cc(NC(=O)c6cnn7ccc(N8CCCC8)nc67)c(C(F)F)n5)CC4)CC3)c21 (stereo partly shown) [I-103] | < 10 | > 200
CC(C)c1ccn2ncc(C(=O)Nc3cn([C@H]4CC[C@H](CN5CCN(CC#Cc6cccc7c6n(C)c(=O)n7C6CCC(=O)NC6=O)CC5)CC4)nc3C(F)F)c2n1 (stereo partly shown) [I-104] | 10 to 100 | > 200
Cn1c(=O)n(C2CCC(=O)NC2=O)c2cccc(C#CCN3CCN(C[C@H]4CC[C@H](n5cc(NC(=O)c6cnn7ccc(C8C[C@H]9C[C@@H]8CO9)nc67)c(C(F)F)n5)CC4)CC3)c21 (stereo partly shown) [I-105] | > 200 | > 200
Cn1c(=O)n(C2CCC(=O)NC2=O)c2cccc(C#CCN3CCN(C[C@H]4CC[C@H](n5cc(NC(=O)c6cnn7ccc(N8CCC8)nc67)c(C(F)F)n5)CC4)CC3)c21 (stereo partly shown) [I-106] | < 10 | > 200
Cn1c(=O)n(C2CCC(=O)NC2=O)c2cccc(C#CCN3CCN(CC4CCC(n5cc(NC(=O)c6cnn7ccc(N8CC9CC8CO9)nc67)c(C(F)F)n5)CC4)CC3)c21 (stereo not shown) [I-108] | > 200 | > 200
